Data taken from US4171363A, “1,2,3-Thiadiazole process” (priority 1978, dated 1979).
Where a name gives a salt, the structure may show the parent alone.

Columns and labels:
α-adrenergic receptor [1] = target: T1, α-adrenergic receptor (Rattus norvegicus, UniProt P43140); test: isolated rat seminal vesicle assay, in vitro α-adrenergic receptor blocking effect against norepinephrine; details: relative to prazosin; isolated rat seminal vesicle, test compound 10 nanograms/ml, norepinephrine agonist
T1 construct: Seminal vesicles were removed and transferred to a shallow disk containing modified Tyrode's solution; from tissue; host or cells: isolated seminal vesicle of male Long Evans rats
T1 sequence (P43140 1-466): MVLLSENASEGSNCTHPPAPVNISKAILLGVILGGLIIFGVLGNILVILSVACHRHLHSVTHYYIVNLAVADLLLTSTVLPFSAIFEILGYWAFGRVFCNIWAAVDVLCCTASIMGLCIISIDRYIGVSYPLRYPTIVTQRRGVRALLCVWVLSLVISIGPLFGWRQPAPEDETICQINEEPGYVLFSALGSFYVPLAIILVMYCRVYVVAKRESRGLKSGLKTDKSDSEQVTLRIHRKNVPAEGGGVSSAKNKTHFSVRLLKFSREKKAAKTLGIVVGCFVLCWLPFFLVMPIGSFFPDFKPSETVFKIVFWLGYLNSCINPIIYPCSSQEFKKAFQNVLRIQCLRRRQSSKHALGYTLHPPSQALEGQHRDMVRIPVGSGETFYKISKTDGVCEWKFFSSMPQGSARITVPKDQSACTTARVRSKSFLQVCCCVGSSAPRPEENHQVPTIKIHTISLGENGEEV
Description: (§1) In Table 1, antihypertensive activity was determined by oral administration to spontaneous hypertensive rats, the in vitro α-adrenergic receptor blocking effect was determined according to the following test method.
(§2) Dungan et al, Int. […] Lietch et al, Brit.
(§3) Male Long Evans rats weighing approximately 300 g. were sacrificed by a sharp blow on the head. Seminal vesicles were removed and transferred to a shallow disk containing modified Tyrode's solution. The vesicles were emptied of their contents by squeezing them gently with a pair of forceps. Silk thread (4-0) was attached to both ends of the vesicle and it was suspended in a 20 ml. muscle chamber containing modified oxygenated Tyrode's solution (g./liter: NaCl 8, KCl 0.2, CaCl2 0.26, NaHCO3 1, Na2 HPO4 0.0575, glucose 0.5 and MgCl2 0.02). The bathing fluid was maintained at 37° C. with a thermostatically controlled isolated organ tissue bath. Contractions were recorded isometrically by means of a force displacement transducer and recordings were made with a Beckman RP Dynograph. Norepinephrine (NE) was added to the muscle chamber in volumes ranging from 0.1 to 0.4 ml. with a one ml. syringe attached to a 3 inch 20 gauge needle. NE and test compounds were dissolved in deionized water.
(§4) NE response curves were obtained alone and in the presence of test compounds. NE was allowed to remain in contact with the strip until a maximal contraction was obtained. The strip was then washed with the perfusion fluid for 15-30 seconds and the preparation was allowed to return to base line before a subsequent dose of NE was given. Increasing amounts of NE were injected into the bath in the same manner until a complete dose response was obtained.
(§5) The seminal vesicles used to obtain the control NE dose response were discarded and new preparations were placed in the tissue bath for evaluation of the test compound. The test compound was added directly to the perfursion fluid (10 nanograms/ml.) and the strips were allowed to remain in contact with the bathing media for at least 10 minutes before the NE dose response was determined.
(§6) ED50 values for NE were obtained by regression analysis as described by Finney, Probit. Analysis, 2d Ed., Cambridge (1964). A minimum of 4 strips and at least 4 doses were employed to calculate the regression lines. The ED50 value is defined as the concentration of NE which produces a contraction equal to 50% of the maximal contraction.

α-adrenergic receptor [2] = test: as above; details: antihypertensive activity ratio (A) over α-adrenergic blocking activity ratio (B)
Description: as §1, §2, §3, §4, §5, §6

[3] = tested on: spontaneous hypertensive rats; test: antihypertensive activity by oral administration to spontaneous hypertensive rats; format: in vivo, rat; details: for ED50 / Antihypertensive Activity Ratio (A): oral, spontaneous hypertensive rat; for ED50: read-out: Antihypertensive ED50 mm Hg; for Antihypertensive Activity Ratio (A): relative to prazosin
Description: as §1

humans = details: cited from earlier work
patients = details: human, in vivo; cited from earlier work

Compound | α-Adr. Bl. Activity Ratio (B) (α-adrenergic receptor [1]) | Ratio A/B (α-adrenergic receptor [2]) | reduction in systolic blood pressure ([3]; 24 hours after oral dose of 10 mg./kg., spontaneous hypertensive rats) [%] | ED50 [3] [mg/kg] | Antihypertensive Activity Ratio (A) [3] | antihypertensive strength compared to prazosin (in words) (humans; clinical daily dose approximately 150 to 500 mg. for trimazosin, 1.5 to 15 mg. for prazosin) | antihypertensive activity in humans (in words) (humans; humans) | adverse reactions, recent reports (in words) (patients)
CCOC(=O)Nc1snnc1C(=O)N1CCN(c2nc(N)c3cc(OC)c(OC)cc3n2)CC1 [Example 1, 4-Amino-6,7-dimethoxy-2-[4-(5-ethoxycarbonylamino-1,2,3-thiadiazole-4-carbonyl)-piperazin-1-vl]-quinazoline Hydrochloride] | 0.15 | 5.0 | 22 | 2.8 | 0.75 |  |  | 
COc1cc2nc(N3CCN(C(=O)c4csnn4)CC3)nc(N)c2cc1OC.Cl [Example 2, 4Amino-6,7-dimethoxy-2-[4-(1,2,3-thiadiazole-4-carbonyl)piperazin-1-yl]quinazoline Hydrochloride] | 0.27 | 2.0 |  | 4 | 0.53 |  |  | 
COc1cc2nc(N3CCN(C(=O)c4cnns4)CC3)nc(N)c2cc1OC.Cl [Example 3, 4-Amino-6,7-dimethoxy-2-[4-(1,2,3-thiadiazole-5-carbonyl)piperazin-1-yl]quinazoline Hydrochloride] | 0.23 | 2.3 |  | 4 | 0.53 |  |  | 
COc1cc2c(N)nc(N3CCN(C(=O)OCC(C)(C)O)CC3)nc2c(OC)c1OC [Trimazosin] |  |  |  |  |  | much weaker drug than prazosin | active in humans as an antihypertensive agent | 
COc1cc2nc(N3CCN(C(=O)c4ccco4)CC3)nc(N)c2cc1OC [prazosin, 2-[4-(2-furoyl)-piperazin-1-yl]-4-amino-6,7-dimethoxyquinazoline, reference compound] |  |  |  | 2.1 |  |  |  | severe adverse reactions of postural hypotension in some patients
